Laboratory results published in US9125415B2, “Thiophene based oligomers as light activated biocides” (STC, UNM, priority 2011, dated 2015).
Marks after values point to notes of the source that are not given here.

Assays:
[1] = Singlet oxygen quantum yield (sensitization, emission at 1260 nm); format: physicochemical; conditions: CD3OD; 2′-acetonaphthone (ΦΔ = 0.79) as actinometer
Description: The important and necessary feature of the biocidal agents triggered by light is their ability to sensitize the formation of singlet oxygen. Having established the formation of triplet state by direct excitation of the oligomers 4a and 4b (but not 4c), we determined their ability to sensitize singlet oxygen in deuterated methanol (ΦΔ, Table 1). […] From the above results it is evident that the oligomer with terthiophene back bone is the most efficient sensitizer for singlet oxygen.
(§1) NMR spectra were recorded using a Varian VXR-300 FT-NMR, operating at 300 MHz for ^1H NMR and at 75.4 MHz for ^13C NMR. UV-Visible spectra were recorded using a Varian Cary 100 dual beam spectrophotometer. Corrected steady-state fluorescence spectra were obtained with a PTI spectrometer. A 1 cm square quartz cuvette was used for solution spectra, and emission was collected at 90° relative to excitation beam. Fluorescence quantum yields are reported relative to known standards. The optical density of solutions at the excitation wavelength was ≦0.1, and corrections were applied for differences in the refractive index of standard and sample solutions. Transient absorption spectra were collected using a laser systems that is described elsewhere.^17,18 The optical density of the solutions was adjusted to ˜0.7 at the excitation wavelength (355 nm) with the laser energy set at 6-7 mJ. Solutions were purged with argon for 45 min before making transient absorption spectroscopy measurements. Singlet oxygen quantum yields were measured using a Photon Technology International Quantamaster near-IR spectrophotometer equipped with an InGaAs photodiode detector, optical chopper and a lock in amplifier.

[2] = test system: Staphylococcus aureus (ATCC 10832); experiment: Antibacterial studies, dead/live assay by flow cytometry (SYTO21 / propidium iodide); format: cell-based; conditions: for dark antibacterial activity / dark toxicity (in words) / light-dependent toxicity versus the bacterial cells (in words) / percentage of killed S. aureus cells: 1 μg/mL oligomer; for dark antibacterial activity / dark toxicity (in words) / light-dependent toxicity versus the bacterial cells (in words): up to 90 min
Description: There has been an increasing interest in the prevention of staphylococcal infections because of the increasing number of infections caused by methicillin-resistant S. aureus (MRSA), which is the most common cause of hospital-acquired infections. Our previous studies with oligo (phenylene ethynylene) type oligomers have clearly established that these oligomers are effective against variety of bacteria in the presence of light. […] As our objective is to develop visible light activated biocidal oligomers, we investigated the antibacterial activity of compounds 4a-c and against Staphylococcus aureus (S. aureus). After oligomer solutions were incubated with S. aureus under visible light illumination or in the dark, the antibacterial effect of the three oligomers was evaluated at time 0, 15, 30, 45, 60, and 90 min by flow cytometry analysis after staining the bacterial suspensions with live/dead fluorescent dyes (SYTO21, green fluorescence=live, and propidium iodide, red fluorescence=dead). FIGS. 7 and 8 show plots of the percentage of dead bacteria cells versus light exposure time of the thiophene-based oligomeric series at […]. […] The antibacterial efficiency of three oligomers increases with increasing irradiation time. In the control sample where oligomers were not added to the bacterial suspension most cells (>90% as shown in flow cytometry data) were viable and appear green fluorescence. Dark antibacterial activity was not observed from 4a and 4b; however, 4c kills ˜27% of bacteria after 90 min of incubation of bacteria with 4c.
Staphylococcus aureus (ATCC 10832, American Type Culture Collection) was grown in Brain Heart Infusion (BHI, Difco) and stored at […] with 20% (v/v) glycerol (EMD) before use. Stock cultures maintained on agar plates (2%, Difco) were used to inoculate 50 mL cultures in liquid BHI. The cultures were incubated at 37° C. for 18 hours. The bacteria were then centrifuged and washed twice with 0.85% NaCl followed by counting in a hemocytometer to normalize bacterial concentration in 20 mL of 0.85% NaCl (8×10^6 cells/mL) for antibacterial tests. Control samples containing only bacterial cells, and desired concentrations of oligomer/bacteria mixture samples were exposed to the visible light for 15, 30, 45, 60 and 90 min in a LuzChem ORG photoreactor using Sylvania T5 bulbs (λ=350-799 nm). Another set of samples were incubated in the dark for 15, 30, 45, 60 and 90 min. Then dead/live assays were conducted using SYTO21 (green fluorescence=live) and propidium iodide (red fluorescence=dead) purchased from Invitrogen. After bacteria were incubated with the oligomers in the light and dark conditions, a 1:1 ratio of dyes (2.4 μL) were added to the samples and kept in the dark for 15 min. Finally, the bacteria were examined using an Accuri C6 flow cytometer where 2×10^4 cells were analyzed from 8×10^6 cell solution. The number of live cells and dead cells corresponding to green and red fluorescence respectively were counted and compared by flow cytometry. Results are shown graphically in FIGS. 7 and 8.

Fluorescence lifetime = format: physicochemical; conditions: component amplitude in brackets
[3] = Transient absorption spectroscopy (triplet excited state); format: physicochemical; conditions: for TTAbs (ΔA, t = 0): methanol, Abs=0.7 at λex, λex=355 nm for 4a and 4b, 425 nm for 4c, immediately following the laser pulse
Procedure: Transient absorption experiments were carried out both in methanol and in water (excitation at 355 nm, 5 ns pulse, […] fluence). […] The important photophysical data obtained in methanol solution are consolidated in Table 1 (see supporting information for data in aqueous solution). FIGS. 5 and 6 compare transient absorption difference spectra obtained immediately following the laser pulse in methanol. […] Pulse energy and ground state absorption matched. […] The response curves from each of the repetitive time increments is indicated by sequential numbers 1-8 in both FIGS. 6A and 6B. Samples were purged with argon for 45 min before the measurements. A higher life time is observed for the triplet excited state in water than in methanol.
as §1

[4] = test system: Staphylococcus aureus (ATCC 10832); experiment: Antibacterial studies, dead/live assay by flow cytometry (SYTO21 / propidium iodide); format: cell-based; conditions: visible light substituted with UV light
[5] = Steady-state fluorescence spectra and fluorescence quantum yields relative to known standards; format: physicochemical
Procedure: as §1

[6] = UV-Visible absorption spectra; format: physicochemical; conditions: for λmax (absorption): MeOH; for λmax (Absorption/nm): Water
Procedure: as §1

[7] = visible light, 90 min of irradiation
[8] = MeOH, quinine sulfate in 0.1M sulfuric acid (ΦF = 0.54) as actinometer
[9] = Water, quinine sulfate in 0.1M sulfuric acid (ΦF = 0.54) as actinometer

TTAbs (λ/nm)/MeOH [3] [nm] | TTAbs (λ/nm) in Water ([3]; Water) [nm] | λmax (fluorescence) ([5]; MeOH) [nm] | λmax (Fluorescence/nm) ([5]; Water) [nm] | λmax (Absorption/nm) [6] [nm] | Compound | ΦΔ (singlet oxygen quantum yield) [1] | dark antibacterial activity / dark toxicity (in words) ([2]; dark) | light-dependent toxicity versus the bacterial cells (in words) ([2]; visible light) | percentage of killed S. aureus cells [2, 7] | TTAbs (ΔA, t = 0) [3] | ΦF (fluorescence quantum yield) [5, 8] | ΦF (fluorescence quantum yield) [5, 9] | λmax (absorption) [6] [nm] | other results
492 | 492 | 460 | 460 | 385 | Cn1nc2c(-c3ccc(CCC[N+](C)(C)C)s3)ccc(-c3ccc(CCC[N+](C)(C)C)s3)c2n1.[Cl-].[Cl-] [4b] | 0.49 ± 0.03 | not observed | marked light-dependent toxicity | about 35% | 0.39 | 0.51 ± 0.02 | 0.340 ± 0.02 | 390 | 
529 | 529 | 615 | 610 | 454 | C[N+](C)(C)CCCc1ccc(-c2ccc(-c3ccc(CCC[N+](C)(C)C)s3)c3nsnc23)s1.[Cl-].[Cl-] [4c] | no singlet oxygen emission was detected | significant dark toxicity | marked light-dependent toxicity | about 35% |  |  |  |  | percentage of killed S. aureus cells ([2]; dark, 90 min of incubation): ~27%; ΦF (fluorescence quantum yield) ([5]; MeOH, fluorescein in 0.1M NaOH (ΦF = 0.92) as actinometer): 0.23 ± 0.02^b

Compound | TTAbs (λ/nm)/MeOH [3] [nm] | TTAbs (λ/nm) in Water ([3]; Water) [nm] | λmax (fluorescence) ([5]; MeOH) [nm] | λmax (Fluorescence/nm) ([5]; Water) [nm] | λmax (Absorption/nm) [6] [nm] | ΦΔ (singlet oxygen quantum yield) [1] | dark antibacterial activity / dark toxicity (in words) ([2]; dark) | light-dependent toxicity versus the bacterial cells (in words) ([2]; visible light) | percentage of killed S. aureus cells [2, 7] | TTAbs (ΔA, t = 0) [3] | ΦF (fluorescence quantum yield) [5, 8] | ΦF (fluorescence quantum yield) [5, 9] | λmax (absorption) [6] [nm] | other results
C[N+](C)(C)CCCc1ccc(-c2ccc(-c3ccc(CCC[N+](C)(C)C)s3)s2)s1.[Cl-].[Cl-] [4a] | 467 | 467 | 437 | 437 | 368 | 0.74 ± 0.02 | not observed | marked light-dependent toxicity | ~93% | 0.55 | 0.06 ± 0.02 | 0.058 ± 0.02 | 364 | biocidal activity at higher concentrations (in words) ([2]; in the presence of light, 5 and 10 μg/mL): virtually eliminates the bacterial population within a few minutes; concentration at which the compound is an effective biocide ([2]; in the presence of light, within 30 minutes): ≥ 1 µg/mL; τF/ns (MeOH) (Fluorescence lifetime; MeOH, 4a at 450 nm): 0.18 ns; τF/ns (Water) (Fluorescence lifetime; Water, 4a 450 nm, 4b 500 nm, 4c 600 nm): 0.19 ns; TTAbs (ΔA, t = 0) in Water ([3]; Water): 0.43; τtriplet (μs) in Water ([3]; Water): 17.9 μs; light activated antibacterial activity under UV light (in words) [4]: the most efficient compound in killing bacteria in the presence of light; shift of absorption in water compared to methanol ([6]; red shift for 4a, blue shift for 4b and 4c): ~4 nm
